Measurements published in patent US10131652B2, “Pyrimidinyloxy benzene derivatives as herbicides” (E. I. DU PONT DE NEMOURS AND COMPANY, priority 2014, dated 2018).

Assays:
Type in all cases: in vivo
[1] = test system: barnyardgrass (Echinochloa crus-galli); experiment: Test B pre-/postemergence plant response
How it was run: (§1)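 Ratings reflect visual injury versus untreated controls, from 0 for no effect to 100 for complete control, assessed roughly 10 days after treatment. Formulation: non-phytotoxic solvent mix with surfactant; pre- and postemergence sprays on plants grown in loam soil and sand.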

[2] = test system: wheat (Triticum aestivum); experiment: Test B pre-/postemergence plant response
How it was run: as §1

[3] = test system: ragweed (common ragweed, Ambrosia elatior); experiment: Test B pre-/postemergence plant response
How it was run: as §1

[4] = test system: Italian ryegrass (Lolium multiflorum); experiment: Test B pre-/postemergence plant response
How it was run: as §1

corn (Zea mays) = experiment: Test B pre-/postemergence plant response
How it was run: as §1

kochia (Kochia scoparia) = experiment: Test B pre-/postemergence plant response
How it was run: as §1

[5] = test system: pigweed (Amaranthus retroflexus); experiment: Test B pre-/postemergence plant response
How it was run: as §1

[6] = test system: giant foxtail (Setaria faberii); experiment: Test B pre-/postemergence plant response
How it was run: as §1

[7] = test system: galium (catchweed bedstraw, Galium aparine); experiment: Test B postemergence plant response
How it was run: (§2)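 Seedlings in a loam soil and sand mix received a postemergence application of the formulated chemicals at the one- to two-leaf stage (2–10 cm tall). They were kept in a greenhouse for roughly 10 days, then scored for injury relative to untreated plants, 0 meaning no effect and 100 complete control.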

[8] = test system: blackgrass (Alopecurus myosuroides); experiment: Test B postemergence plant response
How it was run: as §2

[9] = test system: barnyardgrass (Echinochloa crus-galli); experiment: Test C flooded paddy test plant response; details: Flood, 250 g ai/ha; scale of 0 to 100 where 0 is no effect and 100 is complete control; 13 to 15 days
How it was run: (§3)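 Water-applied treatment: compounds go directly into floodwater standing 3 cm over the soil of pots holding 2-leaf-stage plants. Depth is kept constant; plants stay in a greenhouse 13 to 15 days before visual comparison with controls on a 0–100 scale.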

rice (Oryza sativa) = experiment: Test C flooded paddy test plant response; details: Flood, 250 g ai/ha; scale of 0 to 100 where 0 is no effect and 100 is complete control; 13 to 15 days
How it was run: as §3

[10] = test system: small-flower umbrella sedge (Cyperus difformis); experiment: Test C flooded paddy test plant response; details: Flood, 250 g ai/ha; scale of 0 to 100 where 0 is no effect and 100 is complete control; 13 to 15 days
How it was run: as §3

[11] = test system: ducksalad (Heteranthera limosa); experiment: Test C flooded paddy test plant response; details: Flood, 250 g ai/ha; scale of 0 to 100 where 0 is no effect and 100 is complete control; 13 to 15 days
How it was run: as §3

[12] = 125 g ai/ha, postemergence, 0 to 100 scale, 0 no effect, 100 complete control
[13] = Postemergence, 500 g ai/ha, 0 to 100 scale (0 no effect, 100 complete control)
[14] = Preemergence, 125 g ai/ha, 0 to 100 scale (0 no effect, 100 complete control)
[15] = Preemergence, 500 g ai/ha, 0 to 100 scale where 0 is no effect and 100 is complete control
[16] = 31 g ai/ha, Preemergence, 0 to 100 scale where 0 is no effect and 100 is complete control
[17] = Postemergence, 31 g ai/ha, 0 to 100 scale (0 no effect, 100 complete control)

SMILES	Plant response rating, Barnyardgrass [1, 12]	Barnyardgrass plant response rating [1, 14]	Plant response rating, Wheat [2, 12]	Plant response rating, Ragweed [3, 12]	Ragweed plant response rating [3, 14]	Plant response rating, Ryegrass, Italian [4, 12]	Ryegrass, Italian plant response rating [4, 14]	Plant response rating, Corn (corn (Zea mays); [12])	Plant response rating, Kochia (kochia (Kochia scoparia); [12])	Kochia plant response rating (kochia (Kochia scoparia); [14])	Plant response rating, Pigweed [5, 12]	Pigweed plant response rating [5, 14]	Plant response rating, Foxtail, Giant [6, 12]	Foxtail, Giant plant response rating [6, 14]	Plant response rating, Galium [7, 12]	Plant response rating, Blackgrass [8, 12]	Barnyardgrass plant response rating [9]	Rice plant response rating (rice (Oryza sativa))	Sedge, Umbrella plant response rating [10]	Ducksalad plant response rating [11]	other results
FC(F)(F)Cn1cnc(-c2ccccc2Oc2ncc(Cl)cn2)c1 [Compound 161]	0	0	0	0	0	0	0	0	0	0	0	0	0	0	0	0	0	0	0	0	Plant response rating, Barnyardgrass [1, 13]: 0; Plant response rating, Barnyardgrass [1, 15]: 0; Plant response rating, Wheat [2, 13]: 0; Plant response rating, Ragweed [3, 13]: 0; Plant response rating, Ragweed [3, 15]: 0; Plant response rating, Ryegrass, Italian [4, 13]: 0; Plant response rating, Ryegrass, Italian [4, 15]: 0; Plant response rating, Corn (corn (Zea mays); [13]): 0; Plant response rating, Kochia (kochia (Kochia scoparia); [13]): 0; Plant response rating, Kochia (kochia (Kochia scoparia); [15]): 0; Plant response rating, Pigweed [5, 13]: 0; Plant response rating, Pigweed [5, 15]: 0; Plant response rating, Foxtail, Giant [6, 13]: 0; Plant response rating, Foxtail, Giant [6, 15]: 0; Plant response rating, Galium [7, 13]: 0; Plant response rating, Blackgrass [8, 13]: 0
Clc1cnc(Oc2ccccc2-c2cnccn2)nc1 [Compound 163]	0	0	0	30	40	0	0	10	50	0	30	30	10	0	30	20	0	0	0	0	Plant response rating, Barnyardgrass [1, 16]: 0; Plant response rating, Barnyardgrass [1, 17]: 0; Plant response rating, Wheat [2, 17]: 0; Plant response rating, Ragweed [3, 16]: 0; Plant response rating, Ragweed [3, 17]: 30; Plant response rating, Ryegrass, Italian [4, 16]: 0; Plant response rating, Ryegrass, Italian [4, 17]: 0; Plant response rating, Corn (corn (Zea mays); [17]): 0; Plant response rating, Kochia (kochia (Kochia scoparia); [16]): 0; Plant response rating, Kochia (kochia (Kochia scoparia); [17]): 10; Plant response rating, Pigweed [5, 16]: 0; Plant response rating, Pigweed [5, 17]: 20; Plant response rating, Foxtail, Giant [6, 16]: 0; Plant response rating, Foxtail, Giant [6, 17]: 0; Plant response rating, Galium [7, 17]: 20; Plant response rating, Blackgrass [8, 17]: 20
Fc1cnc(Oc2ccccc2-c2cnccn2)nc1 [Compound 164]	0	0	0	30	0	0	0	0	0	0	30	30	0	0	30	0	0	0	0	0	Plant response rating, Barnyardgrass [1, 16]: 0; Plant response rating, Barnyardgrass [1, 17]: 0; Plant response rating, Wheat [2, 17]: 0; Plant response rating, Ragweed [3, 16]: 0; Plant response rating, Ragweed [3, 17]: 20; Plant response rating, Ryegrass, Italian [4, 16]: 0; Plant response rating, Ryegrass, Italian [4, 17]: 0; Plant response rating, Corn (corn (Zea mays); [17]): 0; Plant response rating, Kochia (kochia (Kochia scoparia); [16]): 0; Plant response rating, Kochia (kochia (Kochia scoparia); [17]): 0; Plant response rating, Pigweed [5, 16]: 0; Plant response rating, Pigweed [5, 17]: 0; Plant response rating, Foxtail, Giant [6, 16]: 0; Plant response rating, Foxtail, Giant [6, 17]: 0; Plant response rating, Galium [7, 17]: 10; Plant response rating, Blackgrass [8, 17]: 0
Fc1cccc(Oc2ncc(Cl)cn2)c1-c1cnccn1 [Compound 165]	20	10	0	60	50	0	0	0	40	60	50	80	20	10	40	30	0	0	0	0	Plant response rating, Barnyardgrass [1, 16]: 0; Plant response rating, Barnyardgrass [1, 17]: 0; Plant response rating, Wheat [2, 17]: 0; Plant response rating, Ragweed [3, 16]: 20; Plant response rating, Ragweed [3, 17]: 30; Plant response rating, Ryegrass, Italian [4, 16]: 0; Plant response rating, Ryegrass, Italian [4, 17]: 0; Plant response rating, Corn (corn (Zea mays); [17]): 0; Plant response rating, Kochia (kochia (Kochia scoparia); [16]): 0; Plant response rating, Kochia (kochia (Kochia scoparia); [17]): 20; Plant response rating, Pigweed [5, 16]: 30; Plant response rating, Pigweed [5, 17]: 30; Plant response rating, Foxtail, Giant [6, 16]: 0; Plant response rating, Foxtail, Giant [6, 17]: 10; Plant response rating, Galium [7, 17]: 20; Plant response rating, Blackgrass [8, 17]: 20
Fc1cnc(Oc2cccc(F)c2-c2cnccn2)nc1 [Compound 166]	0	0	0	30	20	0	0	10	0	0	30	60	0	0	30	0	0	0	0	0	Plant response rating, Barnyardgrass [1, 16]: 0; Plant response rating, Barnyardgrass [1, 17]: 0; Plant response rating, Wheat [2, 17]: 0; Plant response rating, Ragweed [3, 16]: 0; Plant response rating, Ragweed [3, 17]: 10; Plant response rating, Ryegrass, Italian [4, 16]: 0; Plant response rating, Ryegrass, Italian [4, 17]: 0; Plant response rating, Corn (corn (Zea mays); [17]): 0; Plant response rating, Kochia (kochia (Kochia scoparia); [16]): 0; Plant response rating, Kochia (kochia (Kochia scoparia); [17]): 0; Plant response rating, Pigweed [5, 16]: 40; Plant response rating, Pigweed [5, 17]: 20; Plant response rating, Foxtail, Giant [6, 16]: 0; Plant response rating, Foxtail, Giant [6, 17]: 0; Plant response rating, Galium [7, 17]: 20; Plant response rating, Blackgrass [8, 17]: 0
